From ChEMBL document CHEMBL1201862, “PubChem BioAssay data set” (2004) come the findings set out here.

Counter-ions that a name gives are not always drawn. The source made the active and inactive calls.

In one experiment the target is Steroidogenic factor 1 (Homo sapiens, UniProt Q13285). Nature of the experiment: Counterscreen for inverse agonists of the liver receptor homolog-1 (LRH-1; NR5A2): Luminescence-based cell-based high throughput dose response assay to identify inverse agonists of the Steroidogenic Factor 1 Nuclear Receptor (SF1; NR5A1). The experiment is classed as functional. A general note: The purpose of a counterscreen is to sort out artefacts and off-target activity.

Experiment [1] in a line: StAR promoter reporter inhibition counter-screen, dose response, counter-screen for LRH-1 inverse agonist project, cell-based, luminescence, luciferase reporter (AID 651969). The class given is functional.
Experiment [2] has as its target Nuclear receptor subfamily 5 group A member 2 (Homo sapiens, UniProt O00482). The class given is functional, cell-based.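 Further: HEK293T cells transfected with LRH-1 and a StAR promoter luciferase reporter; potency for inhibitors that lower LRH-1 driven reporter light.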
Experiment [3] is described as follows: inhibitors of intracellular T. cruzi replication, confirmation, NIH3T3 host cells, beta-gal luminescence (AID 2044).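 Further: intracellular parasites grown in NIH/3T3 mouse fibroblasts as host cells; luminescent beta-galactosidase reporter signal from transgenic T. cruzi replicating inside host cells; inhibitors lower the luminescence signal.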 The experiment is classed as functional, cell-based.
Experiment [4] in a line: Counterscreen for activators of the function of SWI/SNF related, matrix associated, actin dependent regulator of chromatin, subfamily a, member 2 (SMARCA2, BRM): Luminescence-based cell-based high throughput dose response assay to identify non-selective compounds using the VP16 reporter assay. The class given is functional.
A short description of experiment [5]: cytotoxicity toward NIH3T3 fibroblasts, dose response, counter-screen, cell-based, ATP luminescence, mouse fibroblasts (AID 2010).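 Further: cells exposed to compound for about 90 hours before reading.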 The class given is functional.
For experiment [6], the target named is SWI/SNF-related matrix-associated actin-dependent regulator of chromatin subfamily A member 2 (Homo sapiens, UniProt P51531). Nature of the experiment: Luminescence-based cell-based high throughput dose response assay to identify activators of the function of SWI/SNF related, matrix associated, actin dependent regulator of chromatin, subfamily a, member 2 (SMARCA2, BRM). The class given is functional.

Experiment [7] in a line: Shn3 3'UTR reporter inhibitors, dose response, cell-based, Clone20 osteoblasts, firefly luciferase, cherry-picked (AID 624132).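 Further: firefly luciferase luminescence from reporter carrying the Shn3 3'UTR in osteoblasts.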 The class given is functional.
Experiment [8] is described as follows: control 3'UTR Renilla luciferase suppression, dose response, counter-screen for Shn3 inhibitor project, cell-based, Clone20-Shn3RL, cherry-picked (AID 624133). The experiment is classed as functional.
A further experiment concerns INS1. Description: beta cell apoptosis inhibitors, cytokine rescue, dose response, luminescence, retest (AID 449756).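 Further: cell death triggered by IL-1 beta plus TNF-alpha plus IFN-gamma mixture; protective hits raise ATP signal compared with cytokine alone wells.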 The class given is functional, cell-based. To be noted: Rattus norvegicus.
The target in a further experiment is Protein Wnt-3a (Mus musculus, UniProt P27467). Nature of the experiment: Wnt3a-driven reporter signaling inhibition, dose response, selectivity assay for Gli-SUFU antagonist project, Wnt-LIGHT cells, luminescence (AID 651570).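 Further: Wnt-LIGHT reporter cells stimulated with conditioned medium from Wnt3a-producing cells.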 The class given is functional. To be noted: read-out: IC50_Mean.
A short description of experiment [9]: insulin promoter down-regulators in MIN6 cells, imaging, high-content screening, mouse beta cells (AID 1628). The class given is functional.
Experiment [10] can be described thus: HepG2 cell cytotoxicity, dose response, cytotoxicity control for Shn3 inhibitor project, CellTiter-Glo, cherry-picked (AID 624134). The class given is functional, cell-based. (ATP-based viability assays read luminescence as a measure of living cells.)
The nature of experiment [11]: cytotoxicity in MIN6 insulinoma cells, dose response, cytotoxicity control, cell-based, mouse insulinoma (AID 2122).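 Further: confirmatory high-throughput counterscreen run to flag cytotoxic compounds; mouse MIN-6 beta cells carrying an insulin promoter eGFP reporter.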 The experiment is classed as functional.
Experiment [12] concerns the target Induced myeloid leukemia cell differentiation protein Mcl-1 (Homo sapiens, UniProt Q07820). The class given is functional.
In experiment [13] the target is Glucose-6-phosphate 1-dehydrogenase (Homo sapiens, UniProt P11413). Description: human G6PD enzyme inhibitors, dose response, selectivity assay for P. falciparum G6PD inhibitor project, biochemical, fluorescence (AID 504792). The class given is functional.
Experiment [14] addresses T1, Apoptotic protease-activating factor 1 (Homo sapiens, UniProt O14727).
T1 sequence (O14727 whole entry): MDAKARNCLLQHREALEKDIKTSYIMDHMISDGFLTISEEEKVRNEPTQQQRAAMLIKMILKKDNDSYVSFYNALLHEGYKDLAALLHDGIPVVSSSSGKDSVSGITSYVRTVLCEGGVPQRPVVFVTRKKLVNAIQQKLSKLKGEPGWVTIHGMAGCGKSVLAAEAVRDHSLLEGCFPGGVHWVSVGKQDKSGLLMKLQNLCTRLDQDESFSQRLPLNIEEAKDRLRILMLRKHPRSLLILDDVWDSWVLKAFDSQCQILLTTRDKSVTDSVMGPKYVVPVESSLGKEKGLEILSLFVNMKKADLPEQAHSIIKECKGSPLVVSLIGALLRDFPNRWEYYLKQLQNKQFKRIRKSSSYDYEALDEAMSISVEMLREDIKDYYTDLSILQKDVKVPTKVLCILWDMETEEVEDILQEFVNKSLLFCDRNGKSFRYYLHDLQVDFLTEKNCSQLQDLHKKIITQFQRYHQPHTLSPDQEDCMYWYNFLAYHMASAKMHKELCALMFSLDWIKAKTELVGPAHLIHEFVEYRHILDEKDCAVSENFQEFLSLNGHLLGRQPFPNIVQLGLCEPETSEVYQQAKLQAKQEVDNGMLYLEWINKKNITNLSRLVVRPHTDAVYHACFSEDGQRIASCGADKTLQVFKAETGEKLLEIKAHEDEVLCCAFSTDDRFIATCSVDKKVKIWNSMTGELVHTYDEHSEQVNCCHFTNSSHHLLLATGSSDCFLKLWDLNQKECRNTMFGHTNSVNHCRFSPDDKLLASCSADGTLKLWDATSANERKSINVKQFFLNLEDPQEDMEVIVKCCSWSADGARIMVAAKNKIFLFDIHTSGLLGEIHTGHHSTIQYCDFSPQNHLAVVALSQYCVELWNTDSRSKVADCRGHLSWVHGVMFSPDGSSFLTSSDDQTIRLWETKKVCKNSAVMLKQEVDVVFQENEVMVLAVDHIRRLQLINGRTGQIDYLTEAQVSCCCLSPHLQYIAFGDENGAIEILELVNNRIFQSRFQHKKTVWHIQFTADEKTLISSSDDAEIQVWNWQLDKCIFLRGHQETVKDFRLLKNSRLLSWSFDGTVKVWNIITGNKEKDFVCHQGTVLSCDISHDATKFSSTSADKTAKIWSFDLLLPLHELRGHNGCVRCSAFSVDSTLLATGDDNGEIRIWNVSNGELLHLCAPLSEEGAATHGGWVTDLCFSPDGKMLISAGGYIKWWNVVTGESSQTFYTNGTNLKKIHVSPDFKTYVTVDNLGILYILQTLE
The experiment is classed as functional.

In another experiment the target is Genome polyprotein (dengue virus type 2, UniProt P29990). Nature of the experiment: Dengue-2 NS5 methyltransferase inhibitors, primary screen, biochemical, confirmation dose response (AID 588689). The class given is functional.
For experiment [15], the target named is Eukaryotic translation initiation factor 4E (Mus musculus, UniProt P63073). Nature of the experiment: eIF4E–eIF4G protein interaction inhibitors, dose response, biochemical, TR-FRET (AID 855).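 Further: potency for disrupting eIF4E binding to eIF4GI seen as loss of FRET.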 The class given is functional. Background: In TR-FRET formats the signal depends on donor and acceptor labels being close together.
The subject of the next experiment is Vero. Nature of the experiment: Vero cell cytotoxicity, cytotoxicity control for flavivirus capping enzyme inhibitors (AID 588742). The experiment is classed as functional. To be noted: Chlorocebus sabaeus.
Experiment [16] addresses T2, Mannose-6-phosphate isomerase (Homo sapiens, UniProt P34949).
T2 sequence (P34949 whole entry): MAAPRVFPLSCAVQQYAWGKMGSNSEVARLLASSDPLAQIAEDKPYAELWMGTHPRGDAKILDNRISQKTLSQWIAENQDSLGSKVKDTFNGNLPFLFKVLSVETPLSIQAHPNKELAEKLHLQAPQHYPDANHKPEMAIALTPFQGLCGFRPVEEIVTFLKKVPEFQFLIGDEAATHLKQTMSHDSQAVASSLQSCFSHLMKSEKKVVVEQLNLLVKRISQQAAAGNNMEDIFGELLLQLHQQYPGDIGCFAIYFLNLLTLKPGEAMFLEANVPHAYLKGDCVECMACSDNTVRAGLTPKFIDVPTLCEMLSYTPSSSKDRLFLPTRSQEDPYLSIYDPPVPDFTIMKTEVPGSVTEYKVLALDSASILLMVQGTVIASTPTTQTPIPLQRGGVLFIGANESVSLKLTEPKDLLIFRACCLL
Nature of the experiment: human PMI inhibitors, high substrate, primary screen, biochemical, fluorescence intensity, high mannose 6-phosphate (AID 1220).

In a further experiment the target is Nonstructural protein 1 (Influenza A virus, UniProt Q194T2). The experiment is classed as functional, Influenza A virus (A/California/07/2009(H1N1)).
The next experiment concerns the target Phospholipase D2 (Homo sapiens, UniProt O14939). Description: PLD2 inhibitor potency in cells, dose response (AID 602147).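 Further: cellular assay in HEK293 cells overexpressing GFP-tagged PLD2.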 The experiment is classed as functional.
The target of the next experiment is T3, Phospholipase D1 (Homo sapiens, UniProt Q13393).
T3 sequence (Q13393 whole entry): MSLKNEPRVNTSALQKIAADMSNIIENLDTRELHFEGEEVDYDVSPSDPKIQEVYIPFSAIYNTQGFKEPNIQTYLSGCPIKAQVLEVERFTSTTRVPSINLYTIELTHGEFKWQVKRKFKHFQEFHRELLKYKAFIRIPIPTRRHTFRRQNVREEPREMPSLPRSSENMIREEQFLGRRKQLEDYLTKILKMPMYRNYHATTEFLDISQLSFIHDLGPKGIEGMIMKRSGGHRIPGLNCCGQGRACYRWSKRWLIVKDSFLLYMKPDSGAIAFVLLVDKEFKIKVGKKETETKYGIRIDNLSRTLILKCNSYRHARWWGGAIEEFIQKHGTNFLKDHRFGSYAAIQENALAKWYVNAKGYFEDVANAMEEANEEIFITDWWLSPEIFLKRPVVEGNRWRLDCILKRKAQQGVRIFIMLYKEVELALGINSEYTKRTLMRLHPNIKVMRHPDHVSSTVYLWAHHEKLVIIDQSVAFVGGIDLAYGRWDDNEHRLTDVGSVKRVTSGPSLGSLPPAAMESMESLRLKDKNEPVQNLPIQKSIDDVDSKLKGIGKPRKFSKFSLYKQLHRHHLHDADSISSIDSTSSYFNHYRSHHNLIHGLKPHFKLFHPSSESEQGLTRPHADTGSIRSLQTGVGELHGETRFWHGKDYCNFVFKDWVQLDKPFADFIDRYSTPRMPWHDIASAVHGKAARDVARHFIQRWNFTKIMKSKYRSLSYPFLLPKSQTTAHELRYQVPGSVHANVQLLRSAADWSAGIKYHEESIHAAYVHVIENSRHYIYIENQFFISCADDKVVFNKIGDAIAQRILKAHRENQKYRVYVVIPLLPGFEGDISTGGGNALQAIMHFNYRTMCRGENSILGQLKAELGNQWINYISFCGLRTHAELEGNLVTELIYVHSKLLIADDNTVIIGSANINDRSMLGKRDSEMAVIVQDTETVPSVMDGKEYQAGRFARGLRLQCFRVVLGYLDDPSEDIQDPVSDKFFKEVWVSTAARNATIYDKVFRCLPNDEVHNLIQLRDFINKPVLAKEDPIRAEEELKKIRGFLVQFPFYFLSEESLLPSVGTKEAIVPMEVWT
Nature of the experiment: PLD1 inhibitor potency in cells, dose response (AID 602151).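 Further: cellular PLD1 assay in Calu-1 cells stimulated with PMA.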 The experiment is classed as functional.

Phospholipase D2, sequence (O14939 whole entry): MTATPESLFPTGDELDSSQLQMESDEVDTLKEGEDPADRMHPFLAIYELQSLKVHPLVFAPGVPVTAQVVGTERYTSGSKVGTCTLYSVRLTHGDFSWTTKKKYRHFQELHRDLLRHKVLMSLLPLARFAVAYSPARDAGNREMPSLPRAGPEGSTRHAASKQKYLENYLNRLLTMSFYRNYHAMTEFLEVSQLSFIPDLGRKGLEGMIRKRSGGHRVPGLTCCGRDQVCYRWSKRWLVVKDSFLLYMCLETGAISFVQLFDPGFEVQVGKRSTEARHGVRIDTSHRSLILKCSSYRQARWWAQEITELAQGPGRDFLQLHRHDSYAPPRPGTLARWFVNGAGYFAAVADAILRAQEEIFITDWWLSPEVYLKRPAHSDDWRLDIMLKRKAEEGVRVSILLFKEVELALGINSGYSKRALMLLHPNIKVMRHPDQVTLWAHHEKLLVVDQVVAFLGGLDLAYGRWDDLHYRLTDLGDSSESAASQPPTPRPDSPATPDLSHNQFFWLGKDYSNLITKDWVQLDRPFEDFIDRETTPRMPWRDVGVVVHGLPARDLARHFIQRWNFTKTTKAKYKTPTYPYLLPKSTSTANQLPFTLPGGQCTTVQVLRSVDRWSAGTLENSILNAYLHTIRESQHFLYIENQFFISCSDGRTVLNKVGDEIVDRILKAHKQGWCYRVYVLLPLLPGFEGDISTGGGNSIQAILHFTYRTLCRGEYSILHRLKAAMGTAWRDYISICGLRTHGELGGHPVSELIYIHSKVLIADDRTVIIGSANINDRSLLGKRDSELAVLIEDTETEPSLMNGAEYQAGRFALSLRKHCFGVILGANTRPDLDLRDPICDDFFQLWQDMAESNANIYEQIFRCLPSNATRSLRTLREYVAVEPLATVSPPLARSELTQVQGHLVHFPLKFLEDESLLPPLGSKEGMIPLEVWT
Steroidogenic factor 1, sequence (Q13285 whole entry): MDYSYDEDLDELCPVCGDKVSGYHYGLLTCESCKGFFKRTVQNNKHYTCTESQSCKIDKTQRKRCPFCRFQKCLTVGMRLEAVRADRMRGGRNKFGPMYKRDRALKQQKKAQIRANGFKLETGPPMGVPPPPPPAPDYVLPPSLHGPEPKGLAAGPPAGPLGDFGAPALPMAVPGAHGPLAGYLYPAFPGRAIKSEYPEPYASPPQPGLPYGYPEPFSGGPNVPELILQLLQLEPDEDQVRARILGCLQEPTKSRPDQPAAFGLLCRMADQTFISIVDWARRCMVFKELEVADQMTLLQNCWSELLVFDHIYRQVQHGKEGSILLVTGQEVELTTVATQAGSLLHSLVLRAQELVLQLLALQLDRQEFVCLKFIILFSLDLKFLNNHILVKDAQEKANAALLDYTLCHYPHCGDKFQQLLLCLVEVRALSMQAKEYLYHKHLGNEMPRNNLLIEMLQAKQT
Nuclear receptor subfamily 5 group A member 2, sequence (O00482 whole entry): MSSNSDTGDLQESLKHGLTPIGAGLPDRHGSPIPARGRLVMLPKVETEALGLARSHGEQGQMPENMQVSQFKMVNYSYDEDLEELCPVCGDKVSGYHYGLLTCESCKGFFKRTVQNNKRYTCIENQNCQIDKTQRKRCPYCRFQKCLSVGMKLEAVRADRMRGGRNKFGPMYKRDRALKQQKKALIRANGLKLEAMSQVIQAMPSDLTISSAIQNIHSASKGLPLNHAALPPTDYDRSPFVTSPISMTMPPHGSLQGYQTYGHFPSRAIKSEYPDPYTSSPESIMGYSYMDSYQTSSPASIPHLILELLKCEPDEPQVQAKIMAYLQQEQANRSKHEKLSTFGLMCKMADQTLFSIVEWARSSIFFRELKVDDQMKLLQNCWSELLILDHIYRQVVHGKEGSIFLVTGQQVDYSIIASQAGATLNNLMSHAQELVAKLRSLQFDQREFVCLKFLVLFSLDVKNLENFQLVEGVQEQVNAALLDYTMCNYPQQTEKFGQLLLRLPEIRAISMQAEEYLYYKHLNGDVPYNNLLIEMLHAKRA
Glucose-6-phosphate 1-dehydrogenase, sequence (P11413 whole entry): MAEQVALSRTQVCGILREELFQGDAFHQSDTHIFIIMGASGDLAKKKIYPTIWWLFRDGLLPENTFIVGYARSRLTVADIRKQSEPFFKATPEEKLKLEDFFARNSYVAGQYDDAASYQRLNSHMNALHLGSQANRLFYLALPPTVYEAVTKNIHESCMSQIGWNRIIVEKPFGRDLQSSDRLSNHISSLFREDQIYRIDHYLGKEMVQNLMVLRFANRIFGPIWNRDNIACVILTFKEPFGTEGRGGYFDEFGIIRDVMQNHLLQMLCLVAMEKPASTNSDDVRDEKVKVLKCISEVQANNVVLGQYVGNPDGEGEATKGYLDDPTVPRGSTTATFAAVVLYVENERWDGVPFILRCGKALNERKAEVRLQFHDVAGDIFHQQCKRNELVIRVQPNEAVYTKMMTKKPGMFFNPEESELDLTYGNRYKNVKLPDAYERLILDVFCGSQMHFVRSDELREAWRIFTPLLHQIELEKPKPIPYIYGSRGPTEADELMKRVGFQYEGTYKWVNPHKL
Protein Wnt-3a, sequence (P27467 whole entry): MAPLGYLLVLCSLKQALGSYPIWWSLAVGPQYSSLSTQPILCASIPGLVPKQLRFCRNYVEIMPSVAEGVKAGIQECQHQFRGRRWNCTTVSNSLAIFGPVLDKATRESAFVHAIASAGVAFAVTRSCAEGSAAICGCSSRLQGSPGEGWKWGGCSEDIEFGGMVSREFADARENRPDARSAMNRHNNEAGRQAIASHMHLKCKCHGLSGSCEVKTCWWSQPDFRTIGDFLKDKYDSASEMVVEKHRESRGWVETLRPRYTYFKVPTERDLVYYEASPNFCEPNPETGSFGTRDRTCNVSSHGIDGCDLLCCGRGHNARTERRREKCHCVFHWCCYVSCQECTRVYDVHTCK
SWI/SNF-related matrix-associated actin-dependent regulator of chromatin subfamily A member 2, sequence (P51531 whole entry): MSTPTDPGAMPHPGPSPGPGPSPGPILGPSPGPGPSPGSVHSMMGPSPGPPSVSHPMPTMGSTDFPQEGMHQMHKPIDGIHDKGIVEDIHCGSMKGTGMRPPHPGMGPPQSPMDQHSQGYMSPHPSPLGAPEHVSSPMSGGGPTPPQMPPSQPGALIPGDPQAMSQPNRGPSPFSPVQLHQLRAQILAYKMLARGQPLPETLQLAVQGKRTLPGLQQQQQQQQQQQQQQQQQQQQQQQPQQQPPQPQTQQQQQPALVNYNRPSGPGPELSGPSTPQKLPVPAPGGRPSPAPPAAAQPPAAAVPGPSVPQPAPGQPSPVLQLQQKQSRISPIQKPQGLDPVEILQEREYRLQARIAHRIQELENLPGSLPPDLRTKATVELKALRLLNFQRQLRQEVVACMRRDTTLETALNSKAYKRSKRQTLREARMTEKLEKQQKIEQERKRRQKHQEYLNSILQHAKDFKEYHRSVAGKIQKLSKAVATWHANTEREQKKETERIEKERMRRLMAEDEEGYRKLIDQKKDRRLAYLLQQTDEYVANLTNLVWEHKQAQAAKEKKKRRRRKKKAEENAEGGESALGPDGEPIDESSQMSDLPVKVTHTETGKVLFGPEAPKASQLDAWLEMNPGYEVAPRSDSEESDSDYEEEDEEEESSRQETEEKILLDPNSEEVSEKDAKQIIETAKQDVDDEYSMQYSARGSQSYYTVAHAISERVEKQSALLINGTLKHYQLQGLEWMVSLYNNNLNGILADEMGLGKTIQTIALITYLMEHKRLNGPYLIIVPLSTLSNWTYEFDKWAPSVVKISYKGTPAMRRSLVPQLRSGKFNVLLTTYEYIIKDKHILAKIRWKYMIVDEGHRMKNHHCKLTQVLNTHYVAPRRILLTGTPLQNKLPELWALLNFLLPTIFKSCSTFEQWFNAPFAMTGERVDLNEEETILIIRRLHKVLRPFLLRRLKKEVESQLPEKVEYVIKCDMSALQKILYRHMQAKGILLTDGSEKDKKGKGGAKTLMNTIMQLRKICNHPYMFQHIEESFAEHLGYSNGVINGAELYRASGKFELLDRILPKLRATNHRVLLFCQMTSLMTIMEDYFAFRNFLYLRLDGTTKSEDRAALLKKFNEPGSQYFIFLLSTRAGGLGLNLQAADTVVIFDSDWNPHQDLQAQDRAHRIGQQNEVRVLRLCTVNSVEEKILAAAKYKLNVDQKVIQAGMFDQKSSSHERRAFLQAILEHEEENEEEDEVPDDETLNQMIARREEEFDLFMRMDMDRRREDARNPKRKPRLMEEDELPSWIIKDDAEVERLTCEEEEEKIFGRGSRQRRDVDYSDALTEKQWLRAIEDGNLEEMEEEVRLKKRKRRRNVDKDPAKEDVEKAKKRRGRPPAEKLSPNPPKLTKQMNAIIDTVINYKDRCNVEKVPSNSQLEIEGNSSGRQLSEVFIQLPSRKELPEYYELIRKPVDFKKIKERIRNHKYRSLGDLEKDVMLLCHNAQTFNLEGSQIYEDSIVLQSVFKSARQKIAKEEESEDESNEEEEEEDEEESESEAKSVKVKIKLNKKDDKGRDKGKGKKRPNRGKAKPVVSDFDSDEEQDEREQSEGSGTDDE
Induced myeloid leukemia cell differentiation protein Mcl-1, sequence (Q07820 whole entry): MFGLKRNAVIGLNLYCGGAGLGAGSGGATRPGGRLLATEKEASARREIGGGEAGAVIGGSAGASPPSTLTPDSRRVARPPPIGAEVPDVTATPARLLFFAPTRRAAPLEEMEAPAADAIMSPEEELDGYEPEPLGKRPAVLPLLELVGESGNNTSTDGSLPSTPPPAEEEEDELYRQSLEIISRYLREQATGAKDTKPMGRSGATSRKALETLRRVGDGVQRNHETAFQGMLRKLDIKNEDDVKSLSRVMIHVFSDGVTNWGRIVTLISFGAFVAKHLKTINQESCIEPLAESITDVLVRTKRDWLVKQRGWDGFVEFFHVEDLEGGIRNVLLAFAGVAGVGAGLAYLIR
Eukaryotic translation initiation factor 4E, sequence (P63073 whole entry): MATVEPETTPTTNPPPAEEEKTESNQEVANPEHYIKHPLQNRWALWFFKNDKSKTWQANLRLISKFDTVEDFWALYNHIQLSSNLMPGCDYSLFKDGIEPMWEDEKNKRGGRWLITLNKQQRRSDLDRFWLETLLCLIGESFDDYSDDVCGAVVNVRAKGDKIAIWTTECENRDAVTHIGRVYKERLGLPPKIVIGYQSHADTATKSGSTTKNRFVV

For the compound `COc1cccc(NC(=O)c2oc3ccccc3c2NC(=O)C2CC2)c1`, the IC50 on Steroidogenic factor 1 is 16 µM (inactive); in experiment [1], 35.9 µM (inactive); in experiment [2], 35.9 µM (inactive).

As for `Cc1cc(NCCN2CCOCC2)c2ccc3ccccc3c2n1`, the EC50 (in general, the concentration giving half of the maximal effect) is 949 nM (active) in [3], > 91.2 µM (inactive) in [4], > 60 µM (not active) in experiment [5] and 25.3 µM (inactive) in experiment [6].

For the compound `CCn1c(C)nc2cc(-c3nnc(-c4c(-c5ccccc5)noc4C)o3)ccc21`, the AC50 (in general, the midpoint of the concentration-response curve, whichever way the signal moves) was 5.82 µM (active) in experiment [7], 5.96 µM (active) in experiment [8] and 5.72 µM (active) with INS1. For the same compound, the IC50 at Protein Wnt-3a was 2.59 µM (active).

As for `O=C(c1cc2sccc2n1Cc1ccccc1)N1CCN(c2nc3ccccc3s2)CC1`, the AC50 was 1.09 µM (active) in [7], 0.453 µM (active) in [8], 2.92 µM (active) in experiment [10] and 3.56 µM (active) in the experiment with INS1. The IC50 in experiment [9] is 735 nM (active); at Protein Wnt-3a it was 2.68 µM (active); in [11] it was 779 nM (active).

Take `CCOc1cc(CNc2ccc(N3CCCC3)cc2)cc(Cl)c1OC`: the IC50 in experiment [12] is 2.43 µM (not active); in experiment [13], > 80 µM (inactive); in [14], > 100 µM (inactive); at Genome polyprotein, 48.2 µM (active); in experiment [15], > 64 µM (inactive); in experiment [16], 8.91 µM (active). The IC50 at Nonstructural protein 1 was 20.7 µM (active). Besides, in the experiment with Vero, the CC50 – broadly, the concentration that lowers cell viability or growth by half – is > 40 µM (active).

As to `CC1=CC(O)C(O)C2(C)C1CC1OC(=O)CC3C(C)C(O)C(=O)C2C13CO` (centres undefined), the IC50 on Steroidogenic factor 1 was 4.96 µM (active); in experiment [1], 17.7 µM (inactive); in experiment [2], 6.91 µM (active).

As for `O=C(N[C@@H](Cc1ccccc1)CN1CCC(n2c(=O)[nH]c3ccccc32)CC1)c1cnc2ccccc2c1`, the values for the IC50 on Phospholipase D2 and on Phospholipase D1 were 20 µM (active) and 2.8 µM (active), respectively.

For `COc1cccc(N2CCN(CCNC(=O)c3ccc4ccccc4c3)CC2)c1`, the IC50 at Phospholipase D2 was 18 µM (active); on Phospholipase D1 it was 10 µM (active).

In the case of `C[C@@H](CN1CCC(n2c(=O)[nH]c3ccc(F)cc32)CC1)NC(=O)c1ccc(F)c(F)c1`, the results for the IC50 at Phospholipase D2 and at Phospholipase D1 were 0.315 µM (active) and 0.005 µM (active), respectively.

As for `O=C(Cc1ccc(-c2ccccc2)cc1)Nc1ccccn1` [DIFENPIRAMIDE], the EC50 in experiment [4] and in experiment [6] was > 91.2 µM (inactive) throughout.

As for `CCOC(=O)Nc1ccc(NCc2ccc(F)cc2)nc1N` [FLUPIRTINE MALEATE], the figures for the IC50 in experiment [13] and in experiment [14] were 65.4 µM (inactive) and 26.6 µM (active), respectively.
